In brackets after ≈: the same amount, converted by molar mass. Where two headings read alike, the source gives them in different places. Starred links: 1 amine or outer side, 2 acyl side, 3 side chain; linkers in the order of their positions; H or OH if unused. Positions of bridges follow the written chain, without caps; N, C: chain ends. Residues, ends and D or L forms follow the SMILES beside them. *: point of attachment. C20 diacid = O=C(O)CCCCCCCCCCCCCCCCCCC(=O)*; C18 diacid = O=C(O)CCCCCCCCCCCCCCCCC(=O)*; γGlu = O=C(O)[C@H](CCC(=O)[*:2])N[*:1]
Assays:
[1] = biological target: T1, human amylin receptor (amylin 3(a) receptor: human calcitonin receptor + RAMP-3) (Homo sapiens, UniProt O60896+P30988); assay: Assay (II)a functional CRE-luciferase assay, human amylin receptor; type: cell-based; conditions: Table 2; BHK amylin 3(a)-receptor/CRE-luc cells
T1 construct: expressed in transfected cells; host or cells: BHK570
T1 sequence (P30988 25-474): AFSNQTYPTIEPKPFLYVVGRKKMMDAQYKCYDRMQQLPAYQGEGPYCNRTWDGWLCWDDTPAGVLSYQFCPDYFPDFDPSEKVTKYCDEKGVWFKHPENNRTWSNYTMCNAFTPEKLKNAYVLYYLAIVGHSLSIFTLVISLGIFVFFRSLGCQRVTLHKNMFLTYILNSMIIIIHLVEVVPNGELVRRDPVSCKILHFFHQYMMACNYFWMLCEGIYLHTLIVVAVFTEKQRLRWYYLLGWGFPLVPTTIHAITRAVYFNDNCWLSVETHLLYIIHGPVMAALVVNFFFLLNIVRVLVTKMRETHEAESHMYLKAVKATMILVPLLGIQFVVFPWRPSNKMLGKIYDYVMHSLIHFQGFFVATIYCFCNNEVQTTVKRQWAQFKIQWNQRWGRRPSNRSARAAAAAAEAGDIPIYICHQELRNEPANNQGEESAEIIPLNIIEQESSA
T1 sequence (O60896 24-148 partner): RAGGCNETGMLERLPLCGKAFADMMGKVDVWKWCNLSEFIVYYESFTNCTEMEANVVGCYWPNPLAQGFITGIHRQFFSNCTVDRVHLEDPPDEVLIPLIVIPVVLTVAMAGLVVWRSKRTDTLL

[2] = biological target: T2, human calcitonin receptor (Homo sapiens, UniProt P30988); assay: Assay (II)a functional CRE-luciferase assay, human calcitonin receptor; type: cell-based; conditions: Table 7; human calcitonin (CTa) receptor
T2 construct: expressed in transfected cells; host or cells: BHK570
T2 sequence (P30988 25-474): T1 sequence (P30988 25-474)

[3] = biological target: T3, rat amylin 3(a) receptor (rat calcitonin(a) receptor + rat RAMP3) (Rattus norvegicus, UniProt P32214+Q9JJ73); assay: Assay (II)b functional cAMP FlashPlate assay, rat amylin receptor; type: cell-based; conditions: Table 11
T3 construct: expressed in transfected cells; host or cells: BHK tk'ts 13
T3 sequence (P32214 25-479 isoform P32214-2 limits assumed): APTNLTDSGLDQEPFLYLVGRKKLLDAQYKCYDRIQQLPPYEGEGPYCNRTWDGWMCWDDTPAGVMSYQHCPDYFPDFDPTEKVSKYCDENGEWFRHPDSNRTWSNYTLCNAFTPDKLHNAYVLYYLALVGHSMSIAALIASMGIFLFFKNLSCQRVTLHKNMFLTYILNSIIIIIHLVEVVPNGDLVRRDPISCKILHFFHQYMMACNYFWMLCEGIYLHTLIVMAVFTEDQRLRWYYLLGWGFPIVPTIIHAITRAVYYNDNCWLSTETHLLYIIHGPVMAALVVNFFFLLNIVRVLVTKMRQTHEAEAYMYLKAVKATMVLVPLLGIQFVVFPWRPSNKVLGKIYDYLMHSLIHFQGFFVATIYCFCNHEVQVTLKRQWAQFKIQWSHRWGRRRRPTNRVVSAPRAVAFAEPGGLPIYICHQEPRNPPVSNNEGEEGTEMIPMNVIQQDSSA
T3 sequence (Q9JJ73 23-147 partner): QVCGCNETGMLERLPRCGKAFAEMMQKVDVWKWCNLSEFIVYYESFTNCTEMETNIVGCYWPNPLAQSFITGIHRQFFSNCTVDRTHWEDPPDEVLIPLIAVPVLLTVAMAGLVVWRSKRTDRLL
Summary of the method: (§1)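 cAMP accumulation in transiently transfected BHK tk'ts 13 cells, 100.000 cells/well, expressing rat calcitonin(a) receptor or its RAMP3 co-expression form (amylin 3(a)): 30 min stimulation with IBMX, 24 hours post-transfection. Readout by competition of cellular versus radiolabelled cAMP in FlashPlates, scintillation counted after 3 h.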

[4] = biological target: T4, rat calcitonin (a) receptor (Rattus norvegicus, UniProt P32214); assay: Assay (II)b functional cAMP FlashPlate assay, rat calcitonin receptor; type: cell-based; conditions: Table 11; read-out: CTa receptor rat EC50
T4 construct: expressed in transfected cells; host or cells: BHK tk'ts 13
T4 sequence (P32214 25-479 isoform P32214-2 limits assumed): T3 sequence (P32214 25-479 isoform P32214-2 limits assumed)
Summary of the method: as §1

[5] = Assay (IV) determination of solubility; type: physicochemical
Summary of the method: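 Eight 100 mM buffers (glycylglycine pH 3.0–5.0, bistrispropane pH 6.0–8.0) each received an equal volume of polypeptide dissolved in water at ~500 nmol/ml. Soluble polypeptide was measured by HPLC following 18 hours at room temperature and centrifugation.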

[6] = bistrispropane buffer, pH 6, pH 6.0, read-out: Solubility pH 6.0
[7] = bistrispropane buffer, pH 6.5, pH 6.5, read-out: Solubility pH 6.5
[8] = bistrispropane buffer, pH 7, pH 7.0, 18 hours at room temperature, Table 3, read-out: Solubility pH 7.0
[9] = bistrispropane buffer, pH 7, pH 7.0, Table 8, read-out: Solubility pH 7.0
[10] = bistrispropane buffer, pH 7, pH 7.0, read-out: Solubility pH 7.0
[11] = bistrispropane buffer, pH 7.5, pH 7.5, read-out: Solubility pH 7.5
[12] = bistrispropane buffer, pH 8, pH 8.0, read-out: Solubility pH 8.0
[13] = glycylglycine buffer, pH 3, pH 3.0, read-out: Solubility pH 3.0
[14] = glycylglycine buffer, pH 4, pH 4.0, 18 hours at room temperature, Table 2, read-out: Solubility pH 4.0
[15] = glycylglycine buffer, pH 4, pH 4.0, read-out: Solubility pH 4.0
[16] = glycylglycine buffer, pH 5, pH 5.0, read-out: Solubility pH 5.0

EC50 [1] [nM] | EC50 [2] [nM] | EC50 [3] [nM] | EC50 [4] [nM] | solubility at 18 h [5, 6] [µM] | solubility at 18 h [5, 7] [µM] | solubility at 18 h [5, 8] [µM] | solubility at 18 h [5, 9] [µM] | solubility at 18 h ([5]; bistrispropane buffer, pH 7, pH 7.0, Table 9, read-out: Solubility pH 7.0) [µM] | solubility at 18 h [5, 10] [µM] | solubility at 18 h ([5]; bistrispropane buffer, pH 7.5, pH 7.5, Table 9, read-out: Solubility pH 7.5) [µM] | solubility at 18 h [5, 11] [µM] | solubility at 18 h [5, 12] [µM] | solubility at 18 h [5, 13] [µM] | solubility at 18 h [5, 14] [µM] | solubility at 18 h [5, 15] [µM] | solubility at 18 h [5, 16] [µM] | Structure (SMILES)
0.0255 | 0.0395 | 0.151 | 0.114 | > 200 | > 200 | > 200 | > 200 | > 200 | > 200 | > 200 | > 200 | > 200 | > 200 | > 200 | > 200 | > 200 | CC[C@H](C)[C@H](NC(=O)[C@@H]1CCCN1C(=O)CNC(=O)[C@H](Cc1ccccc1)NC(=O)[C@H](CC(N)=O)NC(=O)[C@H](CC(N)=O)NC(=O)[C@H](CO)NC(=O)[C@H](CO)NC(=O)[C@H](Cc1c[nH]cn1)NC(=O)[C@H](CCCNC(=N)N)NC(=O)[C@H](CC(C)C)NC(=O)[C@H](Cc1ccccc1)NC(=O)[C@H](CCC(=O)O)NC(=O)[C@H](C)NC(=O)[C@H](CC(C)C)NC(=O)[C@H](CCCNC(=N)N)NC(=O)[C@H](CCC(N)=O)NC(=O)[C@@H](NC(=O)[C@H](C)NC(=O)[C@@H]1CSSC[C@H](NC(=O)[C@H](Cc2c[nH]cn2)NC(=O)CNC(=O)CC[C@H](NC(=O)CCCCCCCCCCCCCCCCCCC(=O)O)C(=O)O)C(=O)N[C@@H](CC(N)=O)C(=O)N[C@@H]([C@@H](C)O)C(=O)N[C@@H](C)C(=O)N[C@@H]([C@@H](C)O)C(=O)N1)[C@@H](C)O)C(=O)N[C@@H](CC(C)C)C(=O)N1CCC[C@H]1C(=O)N1CCC[C@H]1C(=O)N[C@H](C(=O)N[C@@H](CC(N)=O)C(=O)N[C@H](C(=O)NCC(=O)N[C@@H](CO)C(=O)N[C@@H](CC(N)=O)C(=O)N[C@H](C(=O)N1CCC[C@H]1C(N)=O)[C@@H](C)O)C(C)C)[C@@H](C)O [Example 89, N-alpha-[(S)-4-Carboxy-4-(19-carboxynonadecanoylamino)butyryl]-Gly-[His1,Glu14,Arg17,Pro37]-pramlintide] ({C20 diacid-γGlu}-GHCNTATCATQRLAEFLRHSSNNFGPILPPTNVGSNTP-NH2; disulfide 3-8 (inferred))
0.0934 | 0.15 | 0.0645 | 0.379 | 52 (≈ 233 µg/mL) | 16 (≈ 71.7 µg/mL) |  |  |  | 15 (≈ 67.3 µg/mL) |  | 58 (≈ 260 µg/mL) | 138 (≈ 619 µg/mL) | > 200 | > 200 | > 200 | > 200 | CC[C@H](C)[C@H](NC(=O)[C@@H]1CCCN1C(=O)CNC(=O)[C@H](Cc1ccccc1)NC(=O)[C@H](CC(N)=O)NC(=O)[C@H](CC(N)=O)NC(=O)[C@H](CO)NC(=O)[C@H](CO)NC(=O)[C@H](CCCNC(=N)N)NC(=O)[C@H](Cc1c[nH]cn1)NC(=O)[C@H](CC(C)C)NC(=O)[C@H](Cc1ccccc1)NC(=O)[C@H](CCC(=O)O)NC(=O)[C@H](C)NC(=O)[C@H](CC(C)C)NC(=O)[C@H](CCCNC(=N)N)NC(=O)[C@H](CCC(N)=O)NC(=O)[C@@H](NC(=O)[C@H](C)NC(=O)[C@@H]1CSSC[C@H](NC(=O)[C@H](Cc2c[nH]cn2)NC(=O)CC[C@H](NC(=O)CCCCCCCCCCCCCCCCCCC(=O)O)C(=O)O)C(=O)N[C@@H](CC(N)=O)C(=O)N[C@@H]([C@@H](C)O)C(=O)N[C@@H](C)C(=O)N[C@@H]([C@@H](C)O)C(=O)N1)[C@@H](C)O)C(=O)N[C@@H](CC(C)C)C(=O)N1CCC[C@H]1C(=O)N1CCC[C@H]1C(=O)N[C@H](C(=O)N[C@@H](CC(N)=O)C(=O)N[C@H](C(=O)NCC(=O)N[C@@H](CO)C(=O)N[C@@H](CC(N)=O)C(=O)N[C@H](C(=O)N[C@@H](Cc1ccc(O)cc1)C(N)=O)[C@@H](C)O)C(C)C)[C@@H](C)O [Example 1, N-alpha-[(S)-4-Carboxy-4-(19-carboxynonadecanoylamino)butyryl]-[His1,Glu14,His17,Arg18]-pramlintide] ({C20 diacid-γGlu}-HCNTATCATQRLAEFLHRSSNNFGPILPPTNVGSNTY-NH2; disulfide 2-7 (inferred))
0.0469 | 0.0792 | 0.122 | 0.433 | > 200 | > 200 | 169 (≈ 748 µg/mL) | 169 (≈ 748 µg/mL) |  | 169 (≈ 748 µg/mL) |  | 197 (≈ 872 µg/mL) | > 200 | > 200 | > 200 | > 200 | > 200 | CC[C@H](C)[C@H](NC(=O)[C@@H]1CCCN1C(=O)CNC(=O)[C@H](Cc1ccccc1)NC(=O)[C@H](CC(N)=O)NC(=O)[C@H](CC(N)=O)NC(=O)[C@H](CO)NC(=O)[C@H](CO)NC(=O)[C@H](Cc1c[nH]cn1)NC(=O)[C@H](Cc1c[nH]cn1)NC(=O)[C@H](CC(C)C)NC(=O)[C@H](Cc1ccccc1)NC(=O)[C@H](CCC(=O)O)NC(=O)[C@H](C)NC(=O)[C@H](CC(C)C)NC(=O)[C@H](CCCNC(=N)N)NC(=O)[C@H](CCC(N)=O)NC(=O)[C@@H](NC(=O)[C@H](C)NC(=O)[C@@H]1CSSC[C@H](NC(=O)[C@H](CCCCN)NC(=O)CC[C@H](NC(=O)CCCCCCCCCCCCCCCCC(=O)O)C(=O)O)C(=O)N[C@@H](CC(N)=O)C(=O)N[C@@H]([C@@H](C)O)C(=O)N[C@@H](C)C(=O)N[C@@H]([C@@H](C)O)C(=O)N1)[C@@H](C)O)C(=O)N[C@@H](CC(C)C)C(=O)N1CCC[C@H]1C(=O)N1CCC[C@H]1C(=O)N[C@H](C(=O)N[C@@H](CC(N)=O)C(=O)N[C@H](C(=O)NCC(=O)N[C@@H](CO)C(=O)N[C@@H](CC(N)=O)C(=O)N[C@H](C(=O)N[C@@H](Cc1ccc(O)cc1)C(N)=O)[C@@H](C)O)C(C)C)[C@@H](C)O [Example 46, N-alpha-[(S)-4-Carboxy-4-(17-carboxyheptadecanoylamino)butyryl]-[Glu14,His17]-pramlintide] ({C18 diacid-γGlu}-KCNTATCATQRLAEFLHHSSNNFGPILPPTNVGSNTY-NH2; disulfide 2-7 (inferred); C-terminus assumed)

— patent publication US8722849B2, “Polypeptides” (Novo Nordisk A/S, priority 2011, dated 2014)
